Experimental data taken from US20190119282A1, “IMIDAZOPYRIDAZINES USEFUL AS INHIBITORS OF THE PAR-2 SIGNALING PATHWAY” (Vertex Pharmaceuticals Incorporated, priority 2013, published 2019).
pIC50: −log10 of the molar value.

Legend:
Details in all cases: HT-29 cells, antagonist mode
[1] = molecular target: T1, PAR2 (HT-29 cells, SLIGKV activation) (Homo sapiens, UniProt P55085); experiment: Ca FLIPR TETRA assay, ANTAGONIST mode, stimulation with 8 μM SLIGKV; assay type: cell-based
T1 construct: host or cells: HT-29 cells
T1 sequence (P55085 26-397): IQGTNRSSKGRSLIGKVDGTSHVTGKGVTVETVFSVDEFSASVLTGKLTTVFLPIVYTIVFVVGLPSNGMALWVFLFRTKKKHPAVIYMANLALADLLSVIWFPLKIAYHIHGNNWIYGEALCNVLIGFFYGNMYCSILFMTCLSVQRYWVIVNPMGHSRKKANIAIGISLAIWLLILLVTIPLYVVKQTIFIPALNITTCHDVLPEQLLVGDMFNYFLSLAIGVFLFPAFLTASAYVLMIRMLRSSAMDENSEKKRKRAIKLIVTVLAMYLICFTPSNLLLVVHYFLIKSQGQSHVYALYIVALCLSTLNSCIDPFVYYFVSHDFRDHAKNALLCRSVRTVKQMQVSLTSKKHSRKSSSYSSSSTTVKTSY
Method in brief: (§1)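 Cells plated overnight at 37 °C, 5% CO2 in 1% FBS medium; dye loading 45 min at 37 °C then 15 min r.t.; compound added from DMSO/HBSS dilution; first read for intrinsic Ca2+ activation; 30 min r.t. incubation; antagonist read after addition of the fixed activator (8 μM SLIGKV, 1 U/mL thrombin, 3.1 U/mL trypsin or 0.6 μM UTP).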

[2] = molecular target: T2, PAR2 (HT-29 cells, trypsin activation) (Homo sapiens, UniProt P55085); experiment: Ca FLIPR TETRA assay, ANTAGONIST mode, stimulation with 3.1 U/mL trypsin; assay type: cell-based
T2 construct: host or cells: HT-29 cells
T2 sequence (P55085 26-397): T1 sequence (P55085 26-397)
Method in brief: as §1

[3] = system: Thrombin-stimulated Ca2+ response in HT-29 cells; experiment: Ca FLIPR TETRA assay, ANTAGONIST mode, stimulation with 1 U/mL Thrombin; assay type: cell-based, human
Method in brief: as §1

[4] = system: UTP-stimulated Ca2+ response in HT-29 cells; experiment: Ca FLIPR TETRA assay, ANTAGONIST mode, stimulation with 0.6 μM UTP; assay type: cell-based, human
Method in brief: as §1

[5] = stimulation with 3.1 U/mL trypsin
[6] = Homo sapiens, stimulation with 1 U/mL Thrombin
[7] = Homo sapiens, stimulation with 0.6 μM UTP

SMILES | pIC50 ([1]; stimulation with 8 μM SLIGKV) | pIC50 [2, 5] | pIC50 [3, 6] | pIC50 [4, 7] | pIC50 ([3]; stimulation with 1 U/mL Thrombin) | pIC50 ([4]; stimulation with 0.6 μM UTP) | pIC50 ([1]; 8 μM SLIGKV) | pIC50 ([2]; 3.1 U/mL trypsin) | pIC50 ([3]; Homo sapiens, 1 U/mL Thrombin) | pIC50 ([4]; Homo sapiens, 0.6 μM UTP)
COC(=O)C(C)(C)CC(=O)N1CCN(C(=O)c2cn3nc(-c4ccc(F)cc4)cc(C(C)(C)C)c3n2)C(C)(C)C1 [Compound I-528] | 8.74 | 8.38 | < 6.00 | < 6.00 |  |  |  |  |  | 
COC(=O)CCC(=O)N1CCN(C(=O)c2cn3nc(-c4ccc(F)cc4)cc(C(C)(C)C)c3n2)C(C)(C)C1 [Compound I-529] | 8.66 | 8.43 | < 6.00 | < 6.00 |  |  |  |  |  | 
COC(=O)C12CC(C(=O)N3CCN(C(=O)c4cn5nc(-c6ccc(F)cc6)cc(C(C)(C)C)c5n4)C(C)(C)C3)(C1)C2 [Compound I-530] | 8.89 | 8.66 | 6.39 | 6.30 |  |  |  |  |  | 
CCOC(=O)/C=C/C(=O)N1CCN(C(=O)c2cn3nc(-c4ccc(F)cc4)cc(C(C)(C)C)c3n2)C(C)(C)C1 [Compound I-531] | 8.92 | 8.70 | < 6.00 | < 6.00 |  |  |  |  |  | 
COC(=O)C1(C)CCC(C(=O)N2CCN(C(=O)c3cn4nc(-c5ccc(Cl)cc5)cc(C(C)(C)C)c4n3)C(C)(C)C2)CC1 (centres unmarked) [Compound I-532] | 9.10 | 8.96 | < 6.00 | < 6.00 |  |  |  |  |  | 
CC(C)(C)c1cc(C2CCC(F)(F)CC2)nn2cc(C(=O)N3CCN(C(=O)[C@H]4CC[C@@H](C(=O)O)CC4)CC3(C)C)nc12 [Compound I-533] | 8.33 | 8.10 | < 6.00 | < 6.00 |  |  |  |  |  | 
CC1(C(=O)O)CCC(C(=O)N2CCN(C(=O)c3cn4nc(-c5ccc(Cl)cc5)cc(C(C)(C)C)c4n3)C(C)(C)C2)CC1 (centres unmarked) [Compound I-534] | 10.10 | 10.00 | < 6.00 | < 6.00 |  |  |  |  |  | 
CC(C)(C)c1cc(-c2ccc(N=[N+]=[N-])cc2)nn2cc(C(=O)N3CCNC(=O)C3(C)C)nc12 [Compound I-536] | 6.77 | 6.63 | < 6.00 | < 6.00 |  |  |  |  |  | 
COC(=O)C1CC(C(=O)N2CCN(C(=O)c3cn4nc(-c5ccc(F)cc5)cc(C(C)(C)C)c4n3)C(C)(C)C2)C1 (centres unmarked) [Compound I-537] | 9.10 | 8.92 | < 6.00 | < 6.00 |  |  |  |  |  | 
COC(=O)[C@H]1CC[C@@H](C(=O)N2CCN(C(=O)c3cn4nc(-c5ccc(Cl)cc5)cc(C(C)C)c4n3)C(C)(C)C2)CC1 [Compound I-539] | 9.10 | 8.89 | < 6.00 | < 6.00 |  |  |  |  |  | 
CC(C)c1cc(-c2ccc(Cl)cc2)nn2cc(C(=O)N3CCN(C(=O)[C@H]4C[C@H](O)C4)CC3(C)C)nc12 [Compound I-540] | 8.38 | 8.09 | < 6.00 | < 6.00 |  |  |  |  |  | 
CC(C)c1cc(-c2ccc(Cl)cc2)nn2cc(C(=O)N3CCN(C(=O)[C@H]4C[C@@](C)(O)C4)CC3(C)C)nc12 [Compound I-541] | 9.00 | 8.82 | < 6.00 | < 6.00 |  |  |  |  |  | 
CC(C)c1cc(-c2ccc(Cl)cc2)nn2cc(C(=O)N3CCN(C(=O)[C@H]4C[C@](O)(C(F)(F)F)C4)CC3(C)C)nc12 [Compound I-542] | 9.70 | 9.52 | < 6.00 | < 6.00 |  |  |  |  |  | 
CC(C)c1cc(-c2ccc(Cl)cc2)nn2cc(C(=O)N3CCN(C(=O)[C@H]4C[C@@H](O)C4)CC3(C)C)nc12 [Compound I-543] | 8.49 | 8.32 | < 6.00 | < 6.00 |  |  |  |  |  | 
COC(=O)C1CC(C(=O)N2CCN(C(=O)c3cn4nc(-c5ccc(Cl)cc5)cc(C(C)C)c4n3)C(C)(C)C2)C1 (centres unmarked) [Compound I-544] | 8.82 | 8.74 | < 6.00 | < 6.00 |  |  |  |  |  | 
COC(=O)C1CC(C(=O)N2CCN(C(=O)c3cn4nc(-c5ccc(Cl)cc5)cc(C(C)C)c4n3)C(C)(C)C2)C1 (centres unmarked) [Compound I-545] | 8.96 | 8.72 |  |  | < 6.00 | < 6.00 |  |  |  | 

SMILES | pIC50 ([1]; stimulation with 8 μM SLIGKV) | pIC50 [2, 5] | pIC50 [3, 6] | pIC50 [4, 7] | pIC50 ([3]; stimulation with 1 U/mL Thrombin) | pIC50 ([4]; stimulation with 0.6 μM UTP) | pIC50 ([1]; 8 μM SLIGKV) | pIC50 ([2]; 3.1 U/mL trypsin) | pIC50 ([3]; Homo sapiens, 1 U/mL Thrombin) | pIC50 ([4]; Homo sapiens, 0.6 μM UTP)
COC(=O)[C@H]1CC[C@H](C(=O)N2CCN(C(=O)c3cn4nc(-c5ccc(Cl)cc5)cc(C(C)C)c4n3)C(C)(C)C2)CC1 [Compound I-546] | 8.74 | 8.80 | < 6.00 | < 6.00 |  |  |  |  |  | 
C[C@H]1C(=O)NCCN1C(=O)c1cn2nc(-c3ccc(F)cc3)cc(C(C)(C)C)c2n1 [Compound I-547] | 6.20 | < 6.00 | < 6.00 | < 6.00 |  |  |  |  |  | 
C[C@@H]1C(=O)NCCN1C(=O)c1cn2nc(-c3ccc(F)cc3)cc(C(C)(C)C)c2n1 [Compound I-548] | 6.26 | < 6.00 | < 6.00 | < 6.00 |  |  |  |  |  | 
CC(C)c1cc(-c2ccc(Cl)cc2)nn2cc(C(=O)N3CCN(C(=O)[C@H]4CC[C@H](C(=O)O)CC4)CC3(C)C)nc12 [Compound I-549] | 7.56 | 7.24 | < 6.00 | < 6.00 |  |  |  |  |  | 
COC(=O)[C@H]1CC[C@@H](C(=O)N2CCN(C(=O)c3cn4nc(C(C)C)cc(C(C)C)c4n3)C(C)(C)C2)CC1 [Compound I-550] | 6.11 | 5.98 | < 4.52 | < 4.52 |  |  |  |  |  | 
CC(C)c1cc(C(C)C)c2nc(C(=O)N3CCN(C(=O)C4CCC(C(=O)O)CC4)CC3(C)C)cn2n1 (centres unmarked) [Compound I-551, 4-[4-(6,8-diisopropylimidazo[1,2-b]pyridazine-2-carbonyl)-3,3-dimethyl-piperazine-1-carbonyl]cyclohexanecarboxylic acid] | 6.01 | 5.82 | < 4.52 | < 4.52 |  |  |  |  |  | 
Cc1n[nH]c(C(=O)N2CCN(C(=O)c3cn4nc(-c5ccc(F)cc5)cc(C(C)C)c4n3)CC2)n1 [Compound I-552] | 6.14 | 6.14 | < 6.00 | < 6.00 |  |  |  |  |  | 
CC(C)c1cc(-c2ccc(Cl)cc2)nn2cc(C(=O)N3CCN(C(=O)[C@H]4C[C@@H](C(=O)O)C4)CC3(C)C)nc12 [Compound I-553] | 7.62 | 7.31 | < 6.00 | < 6.00 |  |  |  |  |  | 
CC(C)c1cc(-c2ccc(Cl)cc2)nn2cc(C(=O)N3CCN(C(=O)[C@H]4C[C@H](C(=O)O)C4)CC3(C)C)nc12 [Compound I-554] |  |  |  |  |  |  | 8.03 | 7.95 | < 6.00 | < 6.00
CC(C)(C)c1cc(-c2ccc(F)cc2)nn2cc(C(=O)N3CCN(C(=O)[C@H]4C[C@@H](C(=O)O)C4)CC3(C)C)nc12 [Compound I-555, (1S,3S)-3-(4-(8-(tert-butyl)-6-(4-fluorophenyl)imidazo[1,2-b]pyridazine-2-carbonyl)-3,3-dimethylpiperazine-1-carbonyl)cyclobutane-1-carboxylic acid] |  |  |  |  |  |  | 8.38 | 8.11 | < 6.00 | < 6.00
CC(C)(C)c1cc(-c2ccc(F)cc2)nn2cc(C(=O)N3CCN(C(=O)[C@H]4C[C@H](C(=O)O)C4)CC3(C)C)nc12 [Compound I-556, (1R,3R)-3-(4-(8-(tert-butyl)-6-(4-fluorophenyl)imidazo[1,2-b]pyridazine-2-carbonyl)-3,3-dimethylpiperazine-1-carbonyl)cyclobutane-1-carboxylic acid] |  |  |  |  |  |  | 8.05 | 7.68 | < 6.00 | < 6.00
CC(C)(C)c1cc(-c2ccc(F)cc2)nn2cc(C(=O)N3CCN(C(=O)/C=C/C(=O)O)CC3(C)C)nc12 [Compound I-558] |  |  |  |  |  |  | 7.73 | 7.36 | < 6.00 | < 6.00
CC(C)(C)c1cc(-c2ccc(F)cc2)nn2cc(C(=O)N3CCN(C(=O)C45CC(C(=O)O)(C4)C5)CC3(C)C)nc12 [Compound I-559] |  |  |  |  |  |  | 7.70 | 7.29 | < 6.00 | < 6.00
CC(C)(C)c1cc(-c2ccc(F)cc2)nn2cc(C(=O)N3CCN(C(=O)CCC(=O)O)CC3(C)C)nc12 [Compound I-560, 4-(4-(8-(tert-butyl)-6-(4-fluorophenyl)imidazo[1,2-b]pyridazine-2-carbonyl)-3,3-dimethylpiperazin-1-yl)-4-oxobutanoic acid] |  |  |  |  |  |  | 8.31 | 8.03 | < 6.00 | < 6.00
CC(C)(CC(=O)N1CCN(C(=O)c2cn3nc(-c4ccc(F)cc4)cc(C(C)(C)C)c3n2)C(C)(C)C1)C(=O)O [Compound I-561, 4-(4-(8-(tert-butyl)-6-(4-fluorophenyl)imidazo[1,2-b]pyridazine-2-carbonyl)-3,3-dimethylpiperazin-1-yl)-2,2-dimethyl-4-oxobutanoic acid] |  |  |  |  |  |  | 9.30 | 9.15 | < 6.00 | < 6.00
CC(C)(C)c1cc(-c2ccc(F)cc2)nn2cc(C(=O)N3CCN(C(=O)C4(C(=O)O)CC4)CC3(C)C)nc12 [Compound I-562] |  |  |  |  |  |  | 7.55 | 6.89 | < 6.00 | < 6.00
